According to publication PMC4079327 (Journal of Medicinal Chemistry, 2014):

Tests used:
HsDHODH L46A = HsDHODH L46A (Homo sapiens, UniProt Q02127, L45A); test: biochemical
HsDHODH R136A = HsDHODH R136A (Homo sapiens, UniProt Q02127, R135A); test: biochemical
PfDHODH [1] = target: T1, PfDHODH (Plasmodium falciparum, UniProt Q08210, DEL384-413); test: Isothermal titration calorimetry; assay type: binding; settings: ITC, 303 K; for ΔH PfDHODH: 1σ confidence interval in parentheses
T1 sequence (Q08210 with tags, fused parts or gaps DEL384-413): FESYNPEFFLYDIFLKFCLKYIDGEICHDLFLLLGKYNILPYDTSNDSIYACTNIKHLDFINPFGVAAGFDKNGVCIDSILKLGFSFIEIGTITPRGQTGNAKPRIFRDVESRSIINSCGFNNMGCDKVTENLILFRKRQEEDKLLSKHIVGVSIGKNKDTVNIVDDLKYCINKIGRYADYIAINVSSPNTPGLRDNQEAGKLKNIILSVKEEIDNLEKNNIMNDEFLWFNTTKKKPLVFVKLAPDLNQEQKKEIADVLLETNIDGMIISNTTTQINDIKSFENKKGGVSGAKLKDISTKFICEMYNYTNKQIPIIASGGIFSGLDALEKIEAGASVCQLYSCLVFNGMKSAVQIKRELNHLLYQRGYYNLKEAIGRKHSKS

rat DHODH = rat DHODH (Rattus norvegicus, UniProt Q63707); test: Isothermal titration calorimetry; assay type: binding; settings: ITC, 303 K; for ΔH rat DHODH: 1σ confidence interval in parentheses
Chain of rat DHODH (Q63707 32-395 limits assumed): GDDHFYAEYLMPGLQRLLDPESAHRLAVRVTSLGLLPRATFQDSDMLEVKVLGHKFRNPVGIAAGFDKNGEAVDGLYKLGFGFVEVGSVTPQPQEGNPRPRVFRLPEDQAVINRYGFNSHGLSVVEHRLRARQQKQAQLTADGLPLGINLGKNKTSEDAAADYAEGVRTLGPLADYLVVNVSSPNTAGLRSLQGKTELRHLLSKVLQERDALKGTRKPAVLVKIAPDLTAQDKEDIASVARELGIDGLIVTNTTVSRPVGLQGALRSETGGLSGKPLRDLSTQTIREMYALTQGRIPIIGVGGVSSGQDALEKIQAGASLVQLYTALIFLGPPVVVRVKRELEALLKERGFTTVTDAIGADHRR

HsDHODH L359A = HsDHODH L359A (Homo sapiens, UniProt Q02127, L358A); test: biochemical
Chain of HsDHODH L359A (Q02127 32-395 L358A): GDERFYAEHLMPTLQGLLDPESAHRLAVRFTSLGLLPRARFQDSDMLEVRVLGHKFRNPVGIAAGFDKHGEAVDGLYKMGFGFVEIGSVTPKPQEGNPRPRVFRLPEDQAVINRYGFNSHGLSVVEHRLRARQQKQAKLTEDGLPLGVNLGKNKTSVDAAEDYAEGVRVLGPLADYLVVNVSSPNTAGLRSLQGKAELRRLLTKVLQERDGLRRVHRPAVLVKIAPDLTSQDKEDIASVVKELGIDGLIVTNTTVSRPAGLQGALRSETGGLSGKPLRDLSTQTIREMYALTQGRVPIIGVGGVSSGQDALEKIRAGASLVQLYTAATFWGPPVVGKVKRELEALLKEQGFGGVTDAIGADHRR

rDHODH = rDHODH (Rattus norvegicus, UniProt Q63707); test: DHODH steady-state inhibition, DCIP assay; assay type: biochemical
Chain of rDHODH (Q63707 29-395 limits assumed): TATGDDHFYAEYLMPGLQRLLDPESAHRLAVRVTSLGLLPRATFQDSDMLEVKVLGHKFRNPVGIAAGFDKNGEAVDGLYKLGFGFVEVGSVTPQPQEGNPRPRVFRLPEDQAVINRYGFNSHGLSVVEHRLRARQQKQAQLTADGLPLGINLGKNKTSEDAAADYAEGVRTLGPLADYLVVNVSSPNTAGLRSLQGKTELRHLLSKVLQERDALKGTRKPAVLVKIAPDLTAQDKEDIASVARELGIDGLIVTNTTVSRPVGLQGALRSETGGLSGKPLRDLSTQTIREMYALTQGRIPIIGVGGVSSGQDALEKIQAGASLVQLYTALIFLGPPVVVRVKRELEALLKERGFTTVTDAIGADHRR

HsDHODH = HsDHODH (Homo sapiens, UniProt Q02127); test: DHODH steady-state inhibition, DCIP assay; assay type: biochemical
Chain of HsDHODH (Q02127 29-395 limits assumed): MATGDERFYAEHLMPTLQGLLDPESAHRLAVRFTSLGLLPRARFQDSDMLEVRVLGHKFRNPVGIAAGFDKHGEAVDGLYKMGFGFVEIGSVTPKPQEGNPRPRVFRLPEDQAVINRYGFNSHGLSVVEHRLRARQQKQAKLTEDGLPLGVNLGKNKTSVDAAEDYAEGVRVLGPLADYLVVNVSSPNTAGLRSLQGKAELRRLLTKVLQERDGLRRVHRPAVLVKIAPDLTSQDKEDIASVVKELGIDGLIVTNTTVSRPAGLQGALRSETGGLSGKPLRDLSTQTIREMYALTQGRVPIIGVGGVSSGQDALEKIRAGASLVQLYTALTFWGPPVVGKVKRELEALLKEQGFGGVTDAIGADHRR

mDHODH = mDHODH (Mus musculus, UniProt O35435); test: DHODH steady-state inhibition, DCIP assay; assay type: biochemical
Chain of mDHODH (O35435 29-395 limits assumed): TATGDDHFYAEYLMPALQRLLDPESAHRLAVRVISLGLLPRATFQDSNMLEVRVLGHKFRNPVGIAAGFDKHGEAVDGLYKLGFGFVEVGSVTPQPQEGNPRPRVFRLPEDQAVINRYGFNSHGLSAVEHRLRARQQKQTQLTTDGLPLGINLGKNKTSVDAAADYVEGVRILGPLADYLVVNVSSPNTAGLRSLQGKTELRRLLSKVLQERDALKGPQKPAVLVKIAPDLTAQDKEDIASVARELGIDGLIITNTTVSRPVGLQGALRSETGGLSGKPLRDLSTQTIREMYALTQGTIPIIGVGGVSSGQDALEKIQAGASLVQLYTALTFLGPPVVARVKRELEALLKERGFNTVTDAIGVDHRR

dDHODH = dDHODH (Canis lupus familiaris, UniProt A0A8I3MWX2); test: DHODH steady-state inhibition, DCIP assay; assay type: biochemical, dog
Chain of dDHODH (A0A8I3MWX2 29-395): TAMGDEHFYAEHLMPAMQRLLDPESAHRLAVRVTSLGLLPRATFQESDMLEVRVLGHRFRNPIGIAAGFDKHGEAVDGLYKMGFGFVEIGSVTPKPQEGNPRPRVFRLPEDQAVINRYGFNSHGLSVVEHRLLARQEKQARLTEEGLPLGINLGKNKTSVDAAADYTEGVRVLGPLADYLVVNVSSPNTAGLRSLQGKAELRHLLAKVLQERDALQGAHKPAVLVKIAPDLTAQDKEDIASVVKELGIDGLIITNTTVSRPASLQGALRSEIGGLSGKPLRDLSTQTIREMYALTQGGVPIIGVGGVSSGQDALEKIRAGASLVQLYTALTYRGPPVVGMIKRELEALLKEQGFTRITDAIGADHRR

PfDHODH [2] = target: T2, PfDHODH (Plasmodium falciparum, UniProt Q08210); settings: read-out: IC50 PfDHODH; cited from earlier work
T2 sequence (Q08210 158-569): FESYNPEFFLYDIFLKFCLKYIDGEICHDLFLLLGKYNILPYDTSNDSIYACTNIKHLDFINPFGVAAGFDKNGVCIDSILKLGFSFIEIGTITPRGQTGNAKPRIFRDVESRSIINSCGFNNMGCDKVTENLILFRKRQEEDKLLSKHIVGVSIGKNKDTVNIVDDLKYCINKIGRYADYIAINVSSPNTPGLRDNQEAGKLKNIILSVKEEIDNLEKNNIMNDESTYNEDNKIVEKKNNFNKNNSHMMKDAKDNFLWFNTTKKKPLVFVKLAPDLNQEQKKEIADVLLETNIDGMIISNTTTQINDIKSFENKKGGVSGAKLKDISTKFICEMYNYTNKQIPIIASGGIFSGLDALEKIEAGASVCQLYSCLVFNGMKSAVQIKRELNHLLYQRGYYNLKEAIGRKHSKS

P. falciparum 3D7 cells = settings: read-out: IC50 P. falciparum 3D7 cells; cited from earlier work

Chain of HsDHODH L46A (Q02127 32-395 L45A): as the sequence (Q02127 32-395 L358A) above, with L14A, A327L counted along it
Chain of HsDHODH R136A (Q02127 32-395 R135A): as the sequence (Q02127 32-395 L358A) above, with R104A, A327L counted along it

Cc1cc(Nc2cc(F)c(C(F)(F)F)c(F)c2)n2nc(C(F)(F)F)nc2n1 [Compound 6, N-(3,5-difluoro-4-(trifluoromethyl)phenyl)-2-(trifluoromethyl)-5-methyl-[1,2,4]-triazolo[1,5-a]pyrimidin-7-amine]
IC50 (HsDHODH L46A): > 100 µM
IC50 (HsDHODH R136A): > 100 µM
–TΔS PfDHODH (PfDHODH [1]): –4.5 kcal/mol
ΔH PfDHODH (PfDHODH [1]): –6.5 (−6.9 to −6.2) kcal/mol
ΔH rat DHODH (rat DHODH): –1.6 (−1.8 to −1.5) kcal/mol

Cc1cc(Nc2cc(F)c(C(F)(F)F)c(F)c2)n2nc(C(C)(F)F)nc2n1 [Compound 11, N-(3,5-difluoro-4-(trifluoromethyl)phenyl)-2-(1,1-difluoroethyl)-5-methyl[1,2,4]-triazolo-[1,5-a]pyrimidin-7-amine]
IC50 (HsDHODH L46A): > 100 µM
IC50 (HsDHODH R136A): > 100 µM
–TΔS PfDHODH (PfDHODH [1]): –3.3 kcal/mol
ΔH PfDHODH (PfDHODH [1]): –8.1 (−8.8 to −7.5) kcal/mol
IC50 (HsDHODH L359A): > 100 µM
–TΔS rat DHODH (rat DHODH): –8.0 kcal/mol
ΔH rat DHODH (rat DHODH): –2.1 (−2.5 to −1.9) kcal/mol

Cc1cc(Nc2ccc(C(F)(F)F)cc2)n2ncnc2n1 [Compound 8, (5-methyl[1,2,4]triazolo[1,5-a]pyrimidin-7-yl)(4-trifluoromethylphenyl)amine]
inhibition of rat DHODH (in words) (rDHODH): did not inhibit
inhibition of the human enzyme (in words) (HsDHODH): did not inhibit
–TΔS PfDHODH (PfDHODH [1]): 1.5 kcal/mol
ΔH PfDHODH (PfDHODH [1]): –10 (−12 to −9.8) kcal/mol
inhibition of mouse DHODH (in words) (mDHODH): did not inhibit
inhibition of dog DHODH (in words) (dDHODH): did not inhibit

Cc1cc(Nc2ccc(C(F)(F)F)c(F)c2)n2nc(C(C)(F)F)nc2n1 [Compound 10, 2-(1,1-difluoroethyl)-N-[3-fluoro-4-(trifluoromethyl)phenyl]-5-methyl [1,2,4]triazolo[1,5-a]pyrimidin-7-amine]
IC50 (HsDHODH L46A): > 100 µM
IC50 (HsDHODH R136A): > 100 µM
–TΔS PfDHODH (PfDHODH [1]): –2.1 kcal/mol
ΔH PfDHODH (PfDHODH [1]): –9.0 (−9.3 to −8.7) kcal/mol
IC50 (HsDHODH L359A): > 100 µM

Cc1cc(Nc2ccc(C(F)(F)F)cc2)n2nc(C(C)(F)F)nc2n1 [Compound 5, 2-(1,1-difluoroethyl)-5-methyl-N-[4-(trifluoromethyl)phenyl]-[1,2,4]triazolo[1,5-a]pyrimidin-7-amine]
inhibition of the human enzyme (in words) (HsDHODH): did not inhibit
–TΔS PfDHODH (PfDHODH [1]): –2.2 kcal/mol
ΔH PfDHODH (PfDHODH [1]): –8.3 (−9.2 to −7.5) kcal/mol

Cc1cc(Nc2cc(F)c(C(F)(F)F)c(F)c2)n2ncnc2n1 [Compound 9, N-(3,5-difluoro-4-(trifluoromethyl)phenyl)-5-methyl-[1,2,4]triazolo[1,5-a]pyrimidin-7-amine]
IC50 (PfDHODH [2]): 130 nM
IC50 (P. falciparum 3D7 cells): 220 nM
